Test results: PubChem BioAssay (NCI)
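In this assay, cells in 96-well plates receive the compound at five concentrations for 48 hours. Endpoints are linearly interpolated between the surrounding concentrations. TGI: concentration producing complete growth inhibition.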

The molecules below were run on SK-MEL-2 melanoma (assay: NCI-60 cell line screen, 48 h).

Compound	TGI [µM]
[N-]=[N+]=NC[C@H]1OCO[C@H](CN=[N+]=[N-])[C@@H](OCCOCCCl)[C@@H]1OCCOCCCl	> 100
Cc1nc2n(c1/C=C1/C(=O)Nc3cccc(Cl)c31)CCS2	51.8
C[C@@H](NC(=O)[C@@H]1C[C@]1(C)COC(=O)c1cc([N+](=O)[O-])cc([N+](=O)[O-])c1)c1cccc2ccccc12	> 100

Each molecule was assayed on SK-MEL-28 melanoma (assay: NCI-60 cell line screen, 48 h).

Compound	TGI [µM]
CC(C)(C)OC(=O)NCCCCC1NC(=O)[C@@H]2Cc3c([nH]c4ccccc34)C(C3CCCCC3)N2C1=O (stereo partly drawn)	> 100
CC(C)(C)N1CSC(=S)N(Cc2ccco2)C1	10.8
CC1(C)N=[N+]([O-])C1(C)C	> 100
[N-]=[N+]=NC[C@H]1OCO[C@H](CN=[N+]=[N-])[C@@H](OCCOCCCl)[C@@H]1OCCOCCCl	> 100
c1ccc(-c2nc(-c3ccccc3SSc3ccccc3-c3nc(-c4ccccc4)nn3-c3ccccc3)n(-c3ccccc3)n2)cc1	> 100
Cc1nc2n(c1/C=C1/C(=O)Nc3cccc(Cl)c31)CCS2	> 100
C[C@@H](NC(=O)[C@@H]1C[C@]1(C)COC(=O)c1cc([N+](=O)[O-])cc([N+](=O)[O-])c1)c1cccc2ccccc12	> 100

What follows are molecules tested on SK-MEL-5 melanoma (assay: NCI-60 cell line screen, 48 h).

Compound	TGI [µM]
CC(C)(C)OC(=O)NCCCCC1NC(=O)[C@@H]2Cc3c([nH]c4ccccc34)C(C3CCCCC3)N2C1=O (stereo partly drawn)	> 100
CC(C)(C)N1CSC(=S)N(Cc2ccco2)C1	14
CC1(C)N=[N+]([O-])C1(C)C	> 100
[N-]=[N+]=NC[C@H]1OCO[C@H](CN=[N+]=[N-])[C@@H](OCCOCCCl)[C@@H]1OCCOCCCl	> 100
Cc1nc2n(c1/C=C1/C(=O)Nc3cccc(Cl)c31)CCS2	> 100
C[C@@H](NC(=O)[C@@H]1C[C@]1(C)COC(=O)c1cc([N+](=O)[O-])cc([N+](=O)[O-])c1)c1cccc2ccccc12	> 100

These molecules were tested on SK-OV-3 ovarian (assay: NCI-60 cell line screen, 48 h).

Compound	TGI [µM]
CC(C)(C)OC(=O)NCCCCC1NC(=O)[C@@H]2Cc3c([nH]c4ccccc34)C(C3CCCCC3)N2C1=O (stereo partly drawn)	> 100
CC(C)(C)N1CSC(=S)N(Cc2ccco2)C1	18.9
CC1(C)N=[N+]([O-])C1(C)C	> 100
[N-]=[N+]=NC[C@H]1OCO[C@H](CN=[N+]=[N-])[C@@H](OCCOCCCl)[C@@H]1OCCOCCCl	> 100
c1ccc(-c2nc(-c3ccccc3SSc3ccccc3-c3nc(-c4ccccc4)nn3-c3ccccc3)n(-c3ccccc3)n2)cc1	> 100
Cc1nc2n(c1/C=C1/C(=O)Nc3cccc(Cl)c31)CCS2	35.1
C[C@@H](NC(=O)[C@@H]1C[C@]1(C)COC(=O)c1cc([N+](=O)[O-])cc([N+](=O)[O-])c1)c1cccc2ccccc12	> 100

These molecules were tested on SN12C renal (assay: NCI-60 cell line screen, 48 h).

Compound	TGI [µM]
CC(C)(C)OC(=O)NCCCCC1NC(=O)[C@@H]2Cc3c([nH]c4ccccc34)C(C3CCCCC3)N2C1=O (stereo partly drawn)	> 100
CC(C)(C)N1CSC(=S)N(Cc2ccco2)C1	16.7
CC1(C)N=[N+]([O-])C1(C)C	> 100
[N-]=[N+]=NC[C@H]1OCO[C@H](CN=[N+]=[N-])[C@@H](OCCOCCCl)[C@@H]1OCCOCCCl	> 100
c1ccc(-c2nc(-c3ccccc3SSc3ccccc3-c3nc(-c4ccccc4)nn3-c3ccccc3)n(-c3ccccc3)n2)cc1	> 100
Cc1nc2n(c1/C=C1/C(=O)Nc3cccc(Cl)c31)CCS2	> 100
C[C@@H](NC(=O)[C@@H]1C[C@]1(C)COC(=O)c1cc([N+](=O)[O-])cc([N+](=O)[O-])c1)c1cccc2ccccc12	> 100

What follows are molecules tested on SNB-19 CNS (assay: NCI-60 cell line screen, 48 h).

Compound	TGI [µM]
CC(C)(C)OC(=O)NCCCCC1NC(=O)[C@@H]2Cc3c([nH]c4ccccc34)C(C3CCCCC3)N2C1=O (stereo partly drawn)	> 100
CC(C)(C)N1CSC(=S)N(Cc2ccco2)C1	14.5
CC1(C)N=[N+]([O-])C1(C)C	> 100
[N-]=[N+]=NC[C@H]1OCO[C@H](CN=[N+]=[N-])[C@@H](OCCOCCCl)[C@@H]1OCCOCCCl	> 100
c1ccc(-c2nc(-c3ccccc3SSc3ccccc3-c3nc(-c4ccccc4)nn3-c3ccccc3)n(-c3ccccc3)n2)cc1	> 100
Cc1nc2n(c1/C=C1/C(=O)Nc3cccc(Cl)c31)CCS2	62.5
C[C@@H](NC(=O)[C@@H]1C[C@]1(C)COC(=O)c1cc([N+](=O)[O-])cc([N+](=O)[O-])c1)c1cccc2ccccc12	> 100

What follows are molecules tested on SNB-75 CNS (assay: NCI-60 cell line screen, 48 h).

Compound	TGI [µM]
CC(C)(C)N1CSC(=S)N(Cc2ccco2)C1	26.4
CC1(C)N=[N+]([O-])C1(C)C	> 100
[N-]=[N+]=NC[C@H]1OCO[C@H](CN=[N+]=[N-])[C@@H](OCCOCCCl)[C@@H]1OCCOCCCl	> 100
c1ccc(-c2nc(-c3ccccc3SSc3ccccc3-c3nc(-c4ccccc4)nn3-c3ccccc3)n(-c3ccccc3)n2)cc1	> 100
Cc1nc2n(c1/C=C1/C(=O)Nc3cccc(Cl)c31)CCS2	37.5
C[C@@H](NC(=O)[C@@H]1C[C@]1(C)COC(=O)c1cc([N+](=O)[O-])cc([N+](=O)[O-])c1)c1cccc2ccccc12	> 100

What follows are molecules tested on SR leukemia (assay: NCI-60 cell line screen, 48 h).

Compound	TGI [µM]
CC(C)(C)OC(=O)NCCCCC1NC(=O)[C@@H]2Cc3c([nH]c4ccccc34)C(C3CCCCC3)N2C1=O (stereo partly drawn)	36.8
CC(C)(C)N1CSC(=S)N(Cc2ccco2)C1	3.55
CC1(C)N=[N+]([O-])C1(C)C	> 100
[N-]=[N+]=NC[C@H]1OCO[C@H](CN=[N+]=[N-])[C@@H](OCCOCCCl)[C@@H]1OCCOCCCl	> 100
c1ccc(-c2nc(-c3ccccc3SSc3ccccc3-c3nc(-c4ccccc4)nn3-c3ccccc3)n(-c3ccccc3)n2)cc1	> 100
Cc1nc2n(c1/C=C1/C(=O)Nc3cccc(Cl)c31)CCS2	> 100
C[C@@H](NC(=O)[C@@H]1C[C@]1(C)COC(=O)c1cc([N+](=O)[O-])cc([N+](=O)[O-])c1)c1cccc2ccccc12	> 100

What follows are molecules tested on SW-620 colon (assay: NCI-60 cell line screen, 48 h).

Compound	TGI [µM]
CC(C)(C)OC(=O)NCCCCC1NC(=O)[C@@H]2Cc3c([nH]c4ccccc34)C(C3CCCCC3)N2C1=O (stereo partly drawn)	> 100
CC(C)(C)N1CSC(=S)N(Cc2ccco2)C1	11.9
CC1(C)N=[N+]([O-])C1(C)C	> 100
[N-]=[N+]=NC[C@H]1OCO[C@H](CN=[N+]=[N-])[C@@H](OCCOCCCl)[C@@H]1OCCOCCCl	> 100
c1ccc(-c2nc(-c3ccccc3SSc3ccccc3-c3nc(-c4ccccc4)nn3-c3ccccc3)n(-c3ccccc3)n2)cc1	> 100
Cc1nc2n(c1/C=C1/C(=O)Nc3cccc(Cl)c31)CCS2	> 100
C[C@@H](NC(=O)[C@@H]1C[C@]1(C)COC(=O)c1cc([N+](=O)[O-])cc([N+](=O)[O-])c1)c1cccc2ccccc12	> 100

Each molecule was assayed on T-47D breast (assay: NCI-60 cell line screen, 48 h).

Compound	TGI [µM]
CC(C)(C)OC(=O)NCCCCC1NC(=O)[C@@H]2Cc3c([nH]c4ccccc34)C(C3CCCCC3)N2C1=O (stereo partly drawn)	> 100
CC(C)(C)N1CSC(=S)N(Cc2ccco2)C1	46.4
CC1(C)N=[N+]([O-])C1(C)C	> 100
[N-]=[N+]=NC[C@H]1OCO[C@H](CN=[N+]=[N-])[C@@H](OCCOCCCl)[C@@H]1OCCOCCCl	> 100
c1ccc(-c2nc(-c3ccccc3SSc3ccccc3-c3nc(-c4ccccc4)nn3-c3ccccc3)n(-c3ccccc3)n2)cc1	> 100
Cc1nc2n(c1/C=C1/C(=O)Nc3cccc(Cl)c31)CCS2	54.9
C[C@@H](NC(=O)[C@@H]1C[C@]1(C)COC(=O)c1cc([N+](=O)[O-])cc([N+](=O)[O-])c1)c1cccc2ccccc12	> 100

What follows are molecules tested on TK-10 renal (assay: NCI-60 cell line screen, 48 h).

Compound	TGI [µM]
CC(C)(C)OC(=O)NCCCCC1NC(=O)[C@@H]2Cc3c([nH]c4ccccc34)C(C3CCCCC3)N2C1=O (stereo partly drawn)	> 100
CC(C)(C)N1CSC(=S)N(Cc2ccco2)C1	11.6
CC1(C)N=[N+]([O-])C1(C)C	> 100
[N-]=[N+]=NC[C@H]1OCO[C@H](CN=[N+]=[N-])[C@@H](OCCOCCCl)[C@@H]1OCCOCCCl	> 100
c1ccc(-c2nc(-c3ccccc3SSc3ccccc3-c3nc(-c4ccccc4)nn3-c3ccccc3)n(-c3ccccc3)n2)cc1	> 100
Cc1nc2n(c1/C=C1/C(=O)Nc3cccc(Cl)c31)CCS2	> 100
C[C@@H](NC(=O)[C@@H]1C[C@]1(C)COC(=O)c1cc([N+](=O)[O-])cc([N+](=O)[O-])c1)c1cccc2ccccc12	> 100

The molecules below were run on U251 CNS (assay: NCI-60 cell line screen, 48 h).

Compound	TGI [µM]
CC(C)(C)OC(=O)NCCCCC1NC(=O)[C@@H]2Cc3c([nH]c4ccccc34)C(C3CCCCC3)N2C1=O (stereo partly drawn)	> 100
CC(C)(C)N1CSC(=S)N(Cc2ccco2)C1	14.4
CC1(C)N=[N+]([O-])C1(C)C	> 100
[N-]=[N+]=NC[C@H]1OCO[C@H](CN=[N+]=[N-])[C@@H](OCCOCCCl)[C@@H]1OCCOCCCl	> 100
c1ccc(-c2nc(-c3ccccc3SSc3ccccc3-c3nc(-c4ccccc4)nn3-c3ccccc3)n(-c3ccccc3)n2)cc1	> 100
Cc1nc2n(c1/C=C1/C(=O)Nc3cccc(Cl)c31)CCS2	34.7
C[C@@H](NC(=O)[C@@H]1C[C@]1(C)COC(=O)c1cc([N+](=O)[O-])cc([N+](=O)[O-])c1)c1cccc2ccccc12	> 100

What follows are molecules tested on UACC-257 melanoma (assay: NCI-60 cell line screen, 48 h).

Compound	TGI [µM]
CC(C)(C)OC(=O)NCCCCC1NC(=O)[C@@H]2Cc3c([nH]c4ccccc34)C(C3CCCCC3)N2C1=O (stereo partly drawn)	> 100
CC(C)(C)N1CSC(=S)N(Cc2ccco2)C1	25
CC1(C)N=[N+]([O-])C1(C)C	> 100
[N-]=[N+]=NC[C@H]1OCO[C@H](CN=[N+]=[N-])[C@@H](OCCOCCCl)[C@@H]1OCCOCCCl	> 100
Cc1nc2n(c1/C=C1/C(=O)Nc3cccc(Cl)c31)CCS2	> 100
C[C@@H](NC(=O)[C@@H]1C[C@]1(C)COC(=O)c1cc([N+](=O)[O-])cc([N+](=O)[O-])c1)c1cccc2ccccc12	> 100

Each molecule was assayed on UACC-62 melanoma (assay: NCI-60 cell line screen, 48 h).

Compound	TGI [µM]
CC(C)(C)OC(=O)NCCCCC1NC(=O)[C@@H]2Cc3c([nH]c4ccccc34)C(C3CCCCC3)N2C1=O (stereo partly drawn)	> 100
CC(C)(C)N1CSC(=S)N(Cc2ccco2)C1	20
CC1(C)N=[N+]([O-])C1(C)C	> 100
[N-]=[N+]=NC[C@H]1OCO[C@H](CN=[N+]=[N-])[C@@H](OCCOCCCl)[C@@H]1OCCOCCCl	> 100
c1ccc(-c2nc(-c3ccccc3SSc3ccccc3-c3nc(-c4ccccc4)nn3-c3ccccc3)n(-c3ccccc3)n2)cc1	> 100
Cc1nc2n(c1/C=C1/C(=O)Nc3cccc(Cl)c31)CCS2	> 100
C[C@@H](NC(=O)[C@@H]1C[C@]1(C)COC(=O)c1cc([N+](=O)[O-])cc([N+](=O)[O-])c1)c1cccc2ccccc12	> 100

The molecules below were run on UO-31 renal (assay: NCI-60 cell line screen, 48 h).

Compound	TGI [µM]
CC(C)(C)OC(=O)NCCCCC1NC(=O)[C@@H]2Cc3c([nH]c4ccccc34)C(C3CCCCC3)N2C1=O (stereo partly drawn)	> 100
CC(C)(C)N1CSC(=S)N(Cc2ccco2)C1	6.14
CC1(C)N=[N+]([O-])C1(C)C	> 100
[N-]=[N+]=NC[C@H]1OCO[C@H](CN=[N+]=[N-])[C@@H](OCCOCCCl)[C@@H]1OCCOCCCl	57.2
c1ccc(-c2nc(-c3ccccc3SSc3ccccc3-c3nc(-c4ccccc4)nn3-c3ccccc3)n(-c3ccccc3)n2)cc1	> 100
Cc1nc2n(c1/C=C1/C(=O)Nc3cccc(Cl)c31)CCS2	> 100
C[C@@H](NC(=O)[C@@H]1C[C@]1(C)COC(=O)c1cc([N+](=O)[O-])cc([N+](=O)[O-])c1)c1cccc2ccccc12	> 100
